Experimental data published in patent publication US10568950B1, “Peptides, combination of peptides and scaffolds for use in immunotherapeutic treatment of various cancers” (Immatics Biotechnologies GmbH, priority 2015, dated 2020).

Test system: CD8+ T cells of healthy HLA-A*24+ donors
Assay: In vitro immunogenicity: priming of CD8+ T cells with aAPCs loaded with HLA-A*24/peptide complexes and anti-CD28, multimer staining
Type: cell-based, human
Details: in vitro immunogenicity of HLA class I peptides; share of positive wells; peptides of Table 3 (HLA-A*24 binding)
Experimental: CD8+ T cells were primed using artificial APCs coated with anti-CD28 mAb and HLA-A*24 in complex with SEQ ID NO: 99 peptide (FIG. 5A, left panel), SEQ ID NO: 119 peptide (FIG. 5B, left panel), SEQ ID NO: 142 peptide (FIG. 5C, left panel) and SEQ ID NO: 174 peptide (FIG. 5D, left panel), respectively. After three cycles of stimulation, the detection of peptide-reactive cells was performed by 2D multimer staining with A*24/SEQ ID NO: 99 (A), A*24/SEQ ID NO: 119 (B), A*24/SEQ ID NO: 142 (C) or A*24/SEQ ID NO: 174 (D). Right panels (FIGS. 5A, 5B, 5C and 5D) show control staining of cells stimulated with irrelevant A*24/peptide complexes. Viable singlet cells were gated for CD8+ lymphocytes. Boolean gates helped excluding false-positive events detected with multimers specific for different peptides. Frequencies of specific multimer+ cells among CD8+ lymphocytes are indicated.
In order to obtain information regarding the immunogenicity of the TUMAPs of the present invention, the inventors performed investigations using an in vitro T-cell priming assay based on repeated stimulations of CD8+ T cells with artificial antigen presenting cells (aAPCs) loaded with peptide/MHC complexes and anti-CD28 antibody.
PBMCs and isolated CD8+ lymphocytes were incubated in T-cell medium (TCM) until use consisting of RPMI-Glutamax (Invitrogen, Karlsruhe, Germany) supplemented with 10% heat inactivated human AB serum (PAN-Biotech, Aidenbach, Germany), 100 U/ml Penicillin/100 μg/ml Streptomycin (Cambrex, Cologne, Germany), 1 mM sodium pyruvate (CC Pro, Oberdorla, Germany), 20 μg/ml Gentamycin (Cambrex). 2.5 ng/ml IL-7 (PromoCell, Heidelberg, Germany) and 10 U/ml IL-2 (Novartis Pharma, Nurnberg, Germany) were also added to the TCM at this step.
Generation of pMHC/anti-CD28 coated beads, T-cell stimulations and readout was performed in a highly defined in vitro system using four different pMHC molecules per stimulation condition and 8 different pMHC molecules per readout condition.
The purified co-stimulatory mouse IgG2a anti human CD28 Ab 9.3 (Jung et al., 1987) was chemically biotinylated using Sulfo-N-hydroxysuccinimidobiotin as recommended by the manufacturer (Perbio, Bonn, Germany). Beads used were 5.6 μm diameter streptavidin coated polystyrene particles (Bangs Laboratories, Illinois, USA).
800.000 beads/200 μl were coated in 96-well plates in the presence of 4×12.5 ng different biotin-pMHC, washed and 600 ng biotin anti-CD28 were added subsequently in a volume of 200 μl. Stimulations were initiated in 96-well plates by co-incubating […] CD8+ T cells with 2×10^5 washed coated beads in 200 μl TCM supplemented with 5 ng/ml IL-12 (PromoCell) for 3 days at 37° C. Half of the medium was then exchanged by fresh TCM supplemented with 80 U/ml IL-2 and incubating was continued for 4 days at 37° C. This stimulation cycle was performed for a total of three times. For the pMHC multimer readout using 8 different pMHC molecules per condition, a two-dimensional combinatorial coding approach was used as previously described (Andersen et al., 2012) with minor modifications encompassing coupling to 5 different fluorochromes. Finally, multimeric analyses were performed by staining the cells with Live/dead near IR dye (Invitrogen, Karlsruhe, Germany), CD8-FITC antibody clone SKI (BD, Heidelberg, Germany) and fluorescent pMHC multimers. For analysis, a BD LSRII SORP cytometer equipped with appropriate lasers and filters was used. Peptide specific cells were calculated as percentage of total CD8+ cells. Evaluation of multimeric analysis was done using the FlowJo software (Tree Star, Oreg., USA). In vitro priming of specific multimer+ CD8+ lymphocytes was detected by comparing to negative control stimulations.

Substance | wells
393 (KYIEAIQWI; listed as Homo sapiens) [compound 393] | ++ (20%-49% = ++)
399 (SYIDVLPEF; listed as Homo sapiens) [compound 399] | ++ (20%-49% = ++)
400 (KYLEKYYNL; listed as Homo sapiens) [compound 400] | ++ (20%-49% = ++)
407 (VYGIRLEHF; listed as Homo sapiens) [compound 407] | +++ (50%-69% = +++)
414 (MYPYIYHVL; listed as Homo sapiens) [compound 414] | ++ (20%-49% = ++)

Same assay, conditions: in vitro immunogenicity, HLA-A*24 peptides of Table 12B

Substance | Wells positive [%]
96 (YYTQYSQTI; listed as Homo sapiens) [compound 96] | + (<20% = +)
99 (QYILAVPVL; listed as Homo sapiens) [compound 99] | +++ (50%-69% = +++)
104 (SYLTWHQQI; listed as Homo sapiens) [compound 104] | + (<20% = +)
107 (KYFPYLVVI; listed as Homo sapiens) [compound 107] | ++ (20%-49% = ++)
109 (LFITGGQFF; listed as Homo sapiens) [compound 109] | ++ (20%-49% = ++)
110 (SYPKIIEEF; listed as Homo sapiens) [compound 110] | ++ (20%-49% = ++)
111 (VYVQILQKL; listed as Homo sapiens) [compound 111] | + (<20% = +)
112 (IYNFVESKL; listed as Homo sapiens) [compound 112] | +++ (50%-69% = +++)
114 (QYLDGTWSL; listed as Homo sapiens) [compound 114] | +++ (50%-69% = +++)
115 (RYLNKSFVL; listed as Homo sapiens) [compound 115] | + (<20% = +)
119 (VYRVYVTTF; listed as Homo sapiens) [compound 119] | +++ (50%-69% = +++)
122 (EYQARIPEF; listed as Homo sapiens) [compound 122] | ++ (20%-49% = ++)
139 (IFGIFPNQF; listed as Homo sapiens) [compound 139] | ++ (20%-49% = ++)
142 (VYVDDIYVI; listed as Homo sapiens) [compound 142] | ++++ (>= 70 % = ++++)
157 (DYIPASGFALF; listed as Homo sapiens) [compound 157] | + (<20% = +)
158 (IYEETRGVLKVF; listed as Homo sapiens) [compound 158] | + (<20% = +)
160 (RYGDGGSSF; listed as Homo sapiens) [compound 160] | + (<20% = +)
161 (KYPDIVQQF; listed as Homo sapiens) [compound 161] | + (<20% = +)
162 (KYTSYILAF; listed as Homo sapiens) [compound 162] | + (<20% = +)
164 (HYVPATKVF; listed as Homo sapiens) [compound 164] | + (<20% = +)
167 (RYGFYYVEF; listed as Homo sapiens) [compound 167] | ++++ (>= 70 % = ++++)
168 (RYLEAALRL; listed as Homo sapiens) [compound 168] | +++ (50%-69% = +++)

Substance | Wells positive [%]
171 (NYEDHFPLL; listed as Homo sapiens) [compound 171] | ++ (20%-49% = ++)
174 (VYEKNGYIYF; listed as Homo sapiens) [compound 174] | ++++ (>= 70 % = ++++)
175 (LYSPVPFTL; listed as Homo sapiens) [compound 175] | + (<20% = +)
177 (VYFKAGLDVF; listed as Homo sapiens) [compound 177] | + (<20% = +)
179 (TYIPVGLGRLL; listed as Homo sapiens) [compound 179] | +++ (50%-69% = +++)
180 (KYLQVVGMF; listed as Homo sapiens) [compound 180] | + (<20% = +)
181 (VYPPYLNYL; listed as Homo sapiens) [compound 181] | ++++ (>= 70 % = ++++)
190 (LYSELTETL; listed as Homo sapiens) [compound 190] | ++++ (>= 70 % = ++++)
277 (FYTFPFQQL; listed as Homo sapiens) [compound 277] | +++ (50%-69% = +++)
344 (EYNSDLHQF; listed as Homo sapiens) [compound 344] | + (<20% = +)
345 (EYNSDLHQFF; listed as Homo sapiens) [compound 345] | ++ (20%-49% = ++)
349 (QYSIISNVF; listed as Homo sapiens) [compound 349] | ++ (20%-49% = ++)
350 (KYGNFIDKL; listed as Homo sapiens) [compound 350] | +++ (50%-69% = +++)
351 (IFHEVPLKF; listed as Homo sapiens) [compound 351] | ++ (20%-49% = ++)
353 (TYGKIDLGF; listed as Homo sapiens) [compound 353] | + (<20% = +)
354 (VYNEQIRDLL; listed as Homo sapiens) [compound 354] | + (<20% = +)
358 (YYSEVPVKL; listed as Homo sapiens) [compound 358] | ++++ (>= 70 % = ++++)
360 (VFSPDGHLF; listed as Homo sapiens) [compound 360] | ++ (20%-49% = ++)
363 (SYAELGTTI; listed as Homo sapiens) [compound 363] | + (<20% = +)
366 (QYLELAHSL; listed as Homo sapiens) [compound 366] | ++ (20%-49% = ++)
367 (LYQDHMQYI; listed as Homo sapiens) [compound 367] | ++ (20%-49% = ++)
371 (AYSHLRYVF; listed as Homo sapiens) [compound 371] | ++ (20%-49% = ++)

Test system: HLA-A*24
Assay: MHC binding assay: UV-ligand exchange, beta2m ELISA (peptide exchange yield)
Design: species or system human
Details: binding to HLA-A*24, β2m ELISA
Source text: Candidate peptides for T cell based therapies according to the present invention were further tested for their MHC binding capacity (affinity). The individual peptide-MHC complexes were produced by UV-ligand exchange, where a UV-sensitive peptide is cleaved upon UV-irradiation, and exchanged with the peptide of interest as analyzed. Only peptide candidates that can effectively bind and stabilize the peptide-receptive MHC molecules prevent dissociation of the MHC complexes. To determine the yield of the exchange reaction, an ELISA was performed based on the detection of the light chain (β2m) of stabilized MHC complexes. The assay was performed as generally described in Rodenko et al. (Rodenko et al., 2006).
96 well MAXISorp plates (NUNC) were coated over night with 2 ug/ml streptavidin in PBS at room temperature, washed 4× and blocked for 1 h at 37° C. in 2% BSA containing blocking buffer. […] Peptide-MHC monomers of the UV-exchange reaction were diluted 100 fold in blocking buffer. Samples were incubated for 1 h at 37° C., washed four times, incubated with 2 ug/ml HRP conjugated anti-βm for 1 h at 37° C., washed again and detected with TMB solution that is stopped with […]. Absorption was measured at 450 nm. Candidate peptides that show a high exchange yield (preferably higher than 50%, most preferred higher than 75%) are generally preferred for a generation and production of antibodies or fragments thereof, and/or T cell receptors or fragments thereof, as they show sufficient avidity to the MHC molecules and prevent dissociation of the MHC complexes.

Substance | Peptide exchange (MHC class I binding score, peptide exchange yield)
96 (YYTQYSQTI; listed as Homo sapiens) [compound 96] | ++++ (>= 75% = ++++)
99 (QYILAVPVL; listed as Homo sapiens) [compound 99] | ++++ (>= 75% = ++++)
104 (SYLTWHQQI; listed as Homo sapiens) [compound 104] | ++++ (>= 75% = ++++)
109 (LFITGGQFF; listed as Homo sapiens) [compound 109] | ++++ (>= 75% = ++++)
114 (QYLDGTWSL; listed as Homo sapiens) [compound 114] | ++++ (>= 75% = ++++)
